Data on two compounds can be found in EP0162494A1, “Process for the preparation of a 3-hydroxy-2,3-dihydrobenzisothiazole 1,1-dioxide and the use of this compound as a biocide and for preparing an ortho-sulphobenzimide” (AKZO N.V., priority 1984, dated 1985).

For one series, the system named is Pseudomonas aeruginosa. Kind of series: MIC, modified DGHM dilution method. In kind it is cell-based. To be noted: A.C. = active compound.
For another series, the system named is Escherichia coli. Kind of series: MIC, modified DGHM dilution method. Particulars: A.C. = active compound. In kind it is cell-based.
The next series has as its system Proteus mirabilis. Kind of series: MIC, modified DGHM dilution method. In kind it is cell-based. To be noted: A.C. = active compound.
The test system of another series is Staphylococcus aureus. Kind of series: MIC, modified DGHM dilution method. Particulars: A.C. = active compound. Type of series: cell-based.
A further series has as its system Streptococcus faecalis. Kind of series: MIC, modified DGHM dilution method. Particulars: Enterococcus faecalis, A.C. = active compound. Type of series: cell-based.
The test system of the next series is Candida albicans. Kind of series: MIC, modified DGHM dilution method. In kind it is cell-based. Particulars: A.C. = active compound.
A further series concerns Saccharomyces cerevisiae. Kind of series: MIC, modified DGHM dilution method. To be noted: A.C. = active compound. Type of series: cell-based.
Another series deals with Chaetomium globosum. Kind of series: MIC, modified DGHM dilution method. Type of series: cell-based. To be noted: A.C. = active compound.
Another series deals with Paecillomyces varioti. Kind of series: MIC, modified DGHM dilution method. In kind it is cell-based. Particulars: A.C. = active compound.
In another series the test system is Trichoderma viride. Kind of series: MIC, modified DGHM dilution method. Particulars: A.C. = active compound. In kind it is cell-based.
In a further series the test system is Aspergillus niger. Kind of series: MIC, modified DGHM dilution method. In kind it is cell-based. To be noted: A.C. = active compound.
In another series the test system is Pellicularia sasaki. Kind of series: MIC, modified DGHM dilution method. Type of series: cell-based. Particulars: A.C. = active compound.
The test system of another series is Pyricularia oryzae. Kind of series: microbe, parasite or virus in culture. Type of series: cell-based. Particulars: read-out: MIC-values.
A further series concerns fungi. Kind of series: MIC, DGHM dilution test method, by type of microorganism. Particulars: read-out: minimum growth inhibiting concentration (MIC value). In kind it is cell-based. As to the method:
(§1) The minimum growth inhibiting concentration (MIC value) of 3-hydroxy-2,3-dihydrobenzisothiazole-1,1-dioxide for the different types of microorganisms was determined in conformity with the dilution test method of the "Deutsche Gesellschaft fUr Hygiene und Mikrobiologie" (DGHM) and are: […]

Another series concerns gram negative bacteria. Described as above. Type of series: cell-based. To be noted: read-out: minimum growth inhibiting concentration (MIC value). As to the method: as §1
A further series deals with gram positive bacteria. The description is as above. In kind it is cell-based. To be noted: read-out: minimum growth inhibiting concentration (MIC value). How it is done: as §1
The test system of the next series is yeasts. The description is as above. In kind it is cell-based. To be noted: read-out: minimum growth inhibiting concentration (MIC value). How it is done: as §1
Series [1] can be described thus: Acute oral toxicity in rats. Type of series: in vivo. Particulars: for LD50 at 24 h / LD50 at 48 h / LD50 at 336 h: rat, in vivo, po; for LD50 at 24 h: after 24 hours; for LD50 at 48 h: after 48 hours; for LD50 at 336 h: after 14 days.
In series [2] the test system is sulfphate reducing bacteria. Kind of series: Bacteriostatic activity towards sulphate reducing bacteria. In kind it is cell-based. Particulars: result in words.
Another series deals with certain bacteria. Kind of series: Synergy with quaternary ammonium compounds. In kind it is cell-based. To be noted: in combination with some quaternary ammonium compounds such as dimethylbenzyl coco-ammonium chloride or didecyldimethyl ammonium chloride.

By LD50 is commonly meant the dose at which mortality reaches 50%.

Values after ≈ are worked out from the molar mass of the structure shown.

For `O=S1(=O)NC(O)c2ccccc21` (stereo not drawn) [3-hydroxy-2,3-dihydrobenzisothiazole-1,1-dioxide], the MIC against Pseudomonas aeruginosa was 1200 µg/mL (≈ 6.48 mM); in the series on Escherichia coli, 600 to 1200 µg/mL (≈ 3.24 to 6.48 mM); with Proteus mirabilis it was 600 to 1200 µg/mL (≈ 3.24 to 6.48 mM); against Staphylococcus aureus, 600 to 1200 µg/mL (≈ 3.24 to 6.48 mM); in the series with Streptococcus faecalis, 600 to 1200 µg/mL (≈ 3.24 to 6.48 mM); in the series on Candida albicans it was 600 to 1200 µg/mL (≈ 3.24 to 6.48 mM). Also, the MIC was 300 to 600 µg/mL (≈ 1.62 to 3.24 mM) in the series with Saccharomyces cerevisiae; 37.5 to 75 µg/mL (≈ 0.202 to 0.405 mM) in the series on Chaetomium globosum; 18.8 to 37.5 µg/mL (≈ 0.102 to 0.202 mM) against Paecillomyces varioti; 75 to 150 µg/mL (≈ 0.405 to 0.81 mM) with Trichoderma viride; 75 to 150 µg/mL (≈ 0.405 to 0.81 mM) against Aspergillus niger; 150 µg/mL (≈ 0.81 mM) against Pellicularia sasaki. Further, the MIC in the series on Pyricularia oryzae fell in the range of 150 to 200 µg/mL (≈ 0.81 to 1.08 mM); in the series on fungi, 37.5 to 600 µg/mL (≈ 0.202 to 3.24 mM); with gram negative bacteria, 600 to 2400 µg/mL (≈ 3.24 to 13 mM); with gram positive bacteria, 600 to 1200 µg/mL (≈ 3.24 to 6.48 mM); in the series with yeasts, 300 to 1200 µg/mL (≈ 1.62 to 6.48 mM). The LD50 at 24 h came out at 860 mg/kg in series [1] (♀ rats), 1070 mg/kg in [1] (♂ + ♀ rats) and 1380 mg/kg in series [1] (♂ rats). Besides, the LD50 at 48 h in series [1] (♀ rats) amounted to 860 mg/kg; in series [1] (♂ + ♀ rats), 1020 mg/kg; in [1] (♂ rats), 1220 mg/kg. In addition, the LD50 at 336 h in [1] (♀ rats) was found to be 860 mg/kg; in series [1] (♂ + ♀ rats), 1020 mg/kg; in [1] (♂ rats), 1220 mg/kg. Further, the oral toxicity result in [1] (result in words) is reported as “low oral toxicity”. Also, the bacteriostatic activity entry in [2] is reported as “remarkable bacteriostatic activity”. Also, in the series on certain bacteria, the effect in combination entry was “synergistic effect”.

`COC1=NS(=O)(=O)c2ccccc21` [3-methoxy-1,2-benzisothiazole-1,1-dioxide, reference compound]: the MIC is above 1200 µg/mL against Pseudomonas aeruginosa; 1200 µg/mL (≈ 6.08 mM) in the series on Escherichia coli; 600 to 1200 µg/mL (≈ 3.04 to 6.08 mM) against Proteus mirabilis; above 1200 µg/mL against Staphylococcus aureus; above 1200 µg/mL with Streptococcus faecalis; above 1200 µg/mL in the series with Candida albicans. In addition, the MIC in the series with Saccharomyces cerevisiae is above 1200 µg/mL; against Chaetomium globosum, above 1200 µg/mL; against Paecillomyces varioti it was 600 to 1200 µg/mL (≈ 3.04 to 6.08 mM); with Trichoderma viride, above 1200 µg/mL; in the series on Aspergillus niger, above 1200 µg/mL; against Pellicularia sasaki, 600 to 1200 µg/mL (≈ 3.04 to 6.08 mM). For the same compound, the MIC with Pyricularia oryzae was above 1200 µg/mL.
